pIC50: −log10 of the molar value. Structures can show the parent of a compound that is named as a salt.
Target: IRE1α (Homo sapiens (Human), UniProt O75460, D688N)
Experiment: IRE1α TR-FRET competition binding assay (IRE1α HTRF)
Conditions: TR-FRET competition binding to kinase domain of IRE1α
Description: IRE1α TR-FRET Competition Binding Assay. The affinity of compound binding to the kinase domain of IRE1α was determined using a time-resolved fluorescence resonance energy transfer (TR-FRET) competition assay.
The purified protein (final concentration 0.25 nM) was pre-incubated with anti-His Europium labeled antibody (Life Technologies PV5596, final concentration 2 nM) for one hour at 4° C. in TR-FRET Assay Buffer (50 mM HEPES, pH 7.5, 10 mM MgCl2, 0.083 mM Brij 35, 1 mM DTT, and 0.1% bovine gamma globulin) prior to addition to test compounds. An Alexa fluor 647-labeled probe based on an ATP competitive inhibitor was added to a final concentration of 2 nM. Reactions were carried out for one hour at room temperature in a final volume of 20 μL in 384 well white ProxiPlates (Perkin Elmer 6008289). Binding of the probe to the IRE1α protein was detected in an Envision instrument (PerkinElmer) equipped with a TRF laser option and a LANCE/Delfia Dual/Bias D400/D630 mirror (Ex 347 nm, 1st Em 665 nm, 2nd Em 615 nm).

Chain of IRE1α (O75460 547-977 D688N): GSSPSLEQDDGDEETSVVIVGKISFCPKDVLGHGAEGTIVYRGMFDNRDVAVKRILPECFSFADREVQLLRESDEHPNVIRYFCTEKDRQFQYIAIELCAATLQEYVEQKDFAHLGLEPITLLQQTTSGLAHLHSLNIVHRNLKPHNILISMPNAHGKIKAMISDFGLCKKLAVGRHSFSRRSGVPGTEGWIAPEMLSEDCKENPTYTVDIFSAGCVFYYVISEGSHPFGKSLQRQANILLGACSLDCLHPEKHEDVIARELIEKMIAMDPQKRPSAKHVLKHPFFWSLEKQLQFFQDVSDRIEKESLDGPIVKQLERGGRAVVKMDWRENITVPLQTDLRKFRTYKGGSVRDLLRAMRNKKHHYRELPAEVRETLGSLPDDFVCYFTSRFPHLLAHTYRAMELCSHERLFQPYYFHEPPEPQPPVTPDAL

SMILES | pIC50
CCn1c(=O)c(-c2cc(F)c(NS(=O)(=O)Cc3ccccc3)c(F)c2F)cc2cnc(N[C@@H]3CNC[C@@H](F)C3)nc21 [Compound 15, N-(4-(8-Ethyl-2-(((3S,5S)-5-fluoropiperidin-3-yl)amino)-7-oxo-7,8-dihydropyrido[2,3-d]pyrimidin-6-yl)-2,3,6-trifluorophenyl)-1-phenylmethanesulfonamide] | 9.68
CC(C)n1c(=O)c(-c2cccc(NS(=O)(=O)Cc3ccccc3)c2F)cc2cnc(N[C@H]3CCCNC3)nc21 [Compound 16, (S)—N-(2-Fluoro-3-(8-isopropyl-7-oxo-2-(piperidin-3-ylamino)-7,8-dihydropyrido[2,3-d]pyrimidin-6-yl)phenyl)-1-phenylmethanesulfonamide] | 8.24
CC(C)n1c(=O)c(-c2ccc(F)c(NS(=O)(=O)Cc3ccccc3)c2)cc2cnc(N[C@H]3CCCNC3)nc21 [Compound 17, (S)—N-(2-Fluoro-5-(8-isopropyl-7-oxo-2-(piperidin-3-ylamino)-7,8-dihydropyrido[2,3-d]pyrimidin-6-yl)phenyl)-1-phenylmethanesulfonamide hydrochloride] | 7.96
O=c1c(-c2ccc(NS(=O)(=O)Cc3ccccc3)c(F)c2F)cc2cnc(N[C@@H]3CNC[C@@H](F)C3)nc2n1C1CCCC1 [Compound 18, N-(4-(8-Cyclopentyl-2-(((3S,5S)-5-fluoropiperidin-3-yl)amino)-7-oxo-7,8-dihydropyrido[2,3-d]pyrimidin-6-yl)-2,3-difluorophenyl)-1-phenylmethanesulfonamide] | 9.39
CC(C)n1c(=O)c(-c2ccc(F)c(NS(=O)(=O)Cc3ccccc3)c2F)cc2cnc(N[C@H]3CCCNC3)nc21 [Compound 19, (S)—N-(2,6-Difluoro-3-(8-isopropyl-7-oxo-2-(piperidin-3-ylamino)-7,8-dihydropyrido[2,3-d]pyrimidin-6-yl)phenyl)-1-phenylmethanesulfonamide] | 8.66
CC(C)Nc1ncc2cc(-c3cc(F)c(NS(=O)(=O)Cc4ccccc4)c(F)c3F)c(=O)n(C(C)C)c2n1 [Compound 20, 1-Phenyl-N-(2,3,6-trifluoro-4-(8-isopropyl-2-(isopropylamino)-7-oxo-7,8-dihydropyrido[2,3-d]pyrimidin-6-yl)phenyl)methanesulfonamide] | 8.92
CC(C)Nc1ncc2cc(-c3cc(F)c(NS(=O)(=O)CCC(F)(F)F)c(F)c3F)c(=O)n(C(C)C)c2n1 [Compound 21, 3,3,3-Trifluoro-N-(2,3,6-trifluoro-4-(8-isopropyl-2-(isopropylamino)-7-oxo-7,8-dihydropyrido[2,3-d]pyrimidin-6-yl)phenyl)propane-1-sulfonamide] | 7.80
CC(C)n1c(=O)c(-c2cc(F)c(NS(=O)(=O)Cc3ccccc3)c(F)c2F)cc2cnc(N[C@H]3CC[C@H](N(C)C)CC3)nc21 [Compound 24, N-(4-(2-(((1r,4r)-4-(Dimethylamino)cyclohexyl)amino)-8-isopropyl-7-oxo-7,8-dihydropyrido[2,3-d]pyrimidin-6-yl)-2,3,6-trifluorophenyl)-1-phenylmethanesulfonamide] | 8.57
CC(C)n1c(=O)c(-c2cc(F)c(NS(=O)(=O)CCC(F)(F)F)c(F)c2F)cc2cnc(N[C@H]3CC[C@H](N(C)C)CC3)nc21 [Compound 25, N-(4-(2-(((1r,4r)-4-(Dimethylamino)cyclohexyl)amino)-8-isopropyl-7-oxo-7,8-dihydropyrido[2,3-d]pyrimidin-6-yl)-2,3,6-trifluorophenyl)-3,3,3-trifluoropropane-1-sulfonamide] | 9.48
CC(C)n1c(=O)c(-c2cc(F)c(NS(=O)(=O)Cc3ccccc3)c(F)c2F)cc2cnc(N[C@@H]3CNC[C@@H](F)C3)nc21 [Compound 26, 1-Phenyl-N-(2,3,6-trifluoro-4-(2-(((3S,5S)-5-fluoropiperidin-3-yl)amino)-8-isopropyl-7-oxo-7,8-dihydropyrido[2,3-d]pyrimidin-6-yl)phenyl)methanesulfonamide] | 9.72
CC(C)n1c(=O)c(-c2cc(F)c(NS(=O)(=O)Cc3ccccc3)c(F)c2F)cc2cnc(N[C@@H]3CNC[C@@](C)(F)C3)nc21 [Compound 27, 1-Phenyl-N-(2,3,6-trifluoro-4-(2-(((3S,5S)-5-fluoro-5-methylpiperidin-3-yl)amino)-8-isopropyl-7-oxo-7,8-dihydropyrido[2,3-d]pyrimidin-6-yl)phenyl)methanesulfonamide] | 9.66
O=c1c(-c2cc(F)c(NS(=O)(=O)Cc3ccccc3)c(F)c2F)cc2cnc(N[C@@H]3CNC[C@@H](F)C3)nc2n1C1CCC1 [Compound 28, N-(4-(8-Cyclobutyl-2-(((3S,5S)-5-fluoropiperidin-3-yl)amino)-7-oxo-7,8-dihydropyrido[2,3-d]pyrimidin-6-yl)-2,3,6-trifluorophenyl)-1-phenylmethanesulfonamide] | 9.72
CC(C)n1c(=O)c(-c2cc(F)c(NS(=O)(=O)Cc3ccc(C#N)cc3)c(F)c2F)cc2cnc(N[C@@H]3CNC[C@@H](F)C3)nc21 [Compound 29, 1-(4-Cyanophenyl)-N-(2,3,6-trifluoro-4-(2-(((3S,5S)-5-fluoropiperidin-3-yl)amino)-8-isopropyl-7-oxo-7,8-dihydropyrido[2,3-d]pyrimidin-6-yl)phenyl)methanesulfonamide] | 9.68
CC(C)n1c(=O)c(-c2cc(F)c(NS(=O)(=O)Cc3cccc(C#N)c3)c(F)c2F)cc2cnc(N[C@@H]3CNC[C@@H](F)C3)nc21 [Compound 30, 1-(3-Cyanophenyl)-N-(2,3,6-trifluoro-4-(2-(((3S,5S)-5-fluoropiperidin-3-yl)amino)-8-isopropyl-7-oxo-7,8-dihydropyrido[2,3-d]pyrimidin-6-yl)phenyl)methanesulfonamide] | 9.68
COc1cccc(CS(=O)(=O)Nc2c(F)cc(-c3cc4cnc(N[C@@H]5CNC[C@@H](F)C5)nc4n(C(C)C)c3=O)c(F)c2F)c1 [Compound 31, 1-(3-Methoxyphenyl)-N-(2,3,6-trifluoro-4-(2-(((3S,5S)-5-fluoropiperidin-3-yl)amino)-8-isopropyl-7-oxo-7,8-dihydropyrido[2,3-d]pyrimidin-6-yl)phenyl)methanesulfonamide hydrochloride] | 9.96
CC(C)n1c(=O)c(-c2cc(F)c(NS(=O)(=O)Cc3ccccc3C#N)c(F)c2F)cc2cnc(N[C@@H]3CNC[C@@H](F)C3)nc21 [Compound 32, 1-(2-Cyanophenyl)-N-(2,3,6-trifluoro-4-(2-(((3S,5S)-5-fluoropiperidin-3-yl)amino)-8-isopropyl-7-oxo-7,8-dihydropyrido[2,3-d]pyrimidin-6-yl)phenyl)methanesulfonamide] | 9.47
CC(C)n1c(=O)c(-c2cc(F)c(NS(=O)(=O)CCC(C)(F)F)c(F)c2F)cc2cnc(N[C@H]3CC[C@H](N(C)C)CC3)nc21 [Compound 33, N-(4-(2-(((1r,4r)-4-(Dimethylamino)cyclohexyl)amino)-8-isopropyl-7-oxo-7,8-dihydropyrido[2,3-d]pyrimidin-6-yl)-2,3,6-trifluorophenyl)-3,3-difluorobutane-1-sulfonamide] | 9.01
CCC(F)(F)CS(=O)(=O)Nc1c(F)cc(-c2cc3cnc(N[C@H]4CC[C@H](N(C)C)CC4)nc3n(C(C)C)c2=O)c(F)c1F [Compound 36, N-(4-(2-(((1r,4r)-4-(Dimethylamino)cyclohexyl)amino)-8-isopropyl-7-oxo-7,8-dihydropyrido[2,3-d]pyrimidin-6-yl)-2,3,6-trifluorophenyl)-2,2-difluorobutane-1-sulfonamide] | 9.74

Reference: patent publication US12344603B2 (Genentech, Inc., priority 2020, dated 2025)
